How the values were obtained:
[1] = biological target: T1, RpOhy (DSM 20415) (Rhodococcus pyridinivorans, UniProt A0A7T7LF34); experiment: yellow colour of purified enzyme; oleic acid conversion with […] added FAD; format: binding; conditions: 20 mM acetate pH 5, 25 °C, 500 uM oleic acid, 1% DMSO
T1 construct: gene INP59_15660; N-terminally His6-tagged, codon-optimised, pBAD/His A, E. coli TOP10; Ni-NTA and SEC; monomer, dimer and larger aggregates
T1 sequence (A0A7T7LF34 1-601): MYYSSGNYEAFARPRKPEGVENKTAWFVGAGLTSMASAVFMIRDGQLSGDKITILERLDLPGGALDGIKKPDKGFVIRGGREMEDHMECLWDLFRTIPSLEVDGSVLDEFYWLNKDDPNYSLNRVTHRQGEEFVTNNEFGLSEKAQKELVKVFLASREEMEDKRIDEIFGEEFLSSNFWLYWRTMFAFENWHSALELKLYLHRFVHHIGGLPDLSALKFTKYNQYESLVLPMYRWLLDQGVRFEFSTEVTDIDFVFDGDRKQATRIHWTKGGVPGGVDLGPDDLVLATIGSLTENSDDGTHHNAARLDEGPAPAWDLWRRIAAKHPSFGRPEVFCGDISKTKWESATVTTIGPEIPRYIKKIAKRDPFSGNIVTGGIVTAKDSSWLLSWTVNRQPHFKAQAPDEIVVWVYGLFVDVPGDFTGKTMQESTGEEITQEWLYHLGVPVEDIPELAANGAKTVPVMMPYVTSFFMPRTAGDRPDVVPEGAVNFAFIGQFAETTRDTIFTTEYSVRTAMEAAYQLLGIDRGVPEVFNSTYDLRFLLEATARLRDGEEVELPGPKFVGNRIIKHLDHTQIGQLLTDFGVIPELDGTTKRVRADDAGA

[2] = biological target: T1, RpOhy (DSM 20415); experiment: coupled assay with alcohol dehydrogenase ADH010, NADH at […] nm; format: biochemical; conditions: apparent cooperative, Hill n 2.45 ± 0.47; 2 mM NAD+, 50 mM PIPES pH 6.5, 10% DMSO; read-out: K0.5

| Km [2] [µM] | SMILES | yellow colour of purified enzyme; oleic acid conversion with 0-100 uM added FAD [1] |
| --- | --- | --- |
| – | Cc1cc2nc3c(=O)[nH]c(=O)nc-3n(C[C@H](O)[C@H](O)[C@H](O)COP(=O)(O)OP(=O)(O)OC[C@H]3O[C@@H](n4cnc5c(N)ncnc54)[C@H](O)[C@@H]3O)c2cc1C [FAD] | yellow colour indicating that the FAD cofactor was incorporated in the enzyme |
| 720 ± 70 | CCCCCCCC/C=C\CCCCCCCC(=O)O [compound 3, Oleic acid] | – |

From paper PMC7306040, “Exploring the abundance of oleate hydratases in the genus Rhodococcus—discovery of novel enzymes with complementary substrate scope” (Applied Microbiology and Biotechnology, 2020)
